For the test, the system named is patients with narcolepsy type 1 or type 2. Put plainly: ESS, 12-week phase 3 study in narcolepsy. It is filed as in vivo, human. Here is the method: The ESS is a subjective sleepiness test that is well known in the art and routinely used to measure the sleepiness level of a subject. The scale is intended to measure daytime sleepiness through the use of a short questionnaire that asks the subject to rate his or her probability of falling asleep on a scale of increasing probability from 0 to 3 for eight different situations that most people engage in during their daily lives. The scores for the eight questions are added together to obtain a single number that estimates the subject's average sleep propensity (ASP). A number in the 0-10 range is considered to be normal while 11-12 indicates mild excessive sleepiness, 13-15 indicates moderate excessive sleepiness, and 16 or higher indicates severe excessive sleepiness. Narcolepsy patients have an average score of about 17. Obstructive sleep apnea (OSA) patients with excessive sleepiness have an average score of about 15.
The study was a 12-week, double-blind, randomized, placebo-controlled, parallel-group study. […]
Efficacy analyses were based on the modified intent-to-treat population (mITT), defined as all patients who were randomized, received at least 1 dose of study drug, and had baseline and at least 1 post-baseline evaluation of both MWT and ESS. MWT and ESS were analyzed using a mixed-effect repeated measures (MMRM) model. PGI-C was analyzed using a chi-square test. […]

On to `NC(=O)OC[C@H](N)Cc1ccccc1` [JZP-110, (R)-2-amino-3-phenylpropyl carbamate], for which the “ESS scores, effect at week 1” value (150 and 300 mg, as early as week 1) was “Statistically significant effects”. Further, the “ESS scores relative to placebo” value (all doses, week 12, mITT) was “significantly decreased ESS scores relative to placebo”.

The record behind these values is patent publication US11865098B1, “Methods and compositions for treating excessive sleepiness” (Axsome Malta Ltd., priority 2017, dated 2024).
